# Measured values taken from patent publication US20060252813A1, “Apparatus for curing a composite laminate” (priority 2002, published 2006).
# Where a SMILES comes first, the peptide text is derived from it. [ ]: non-standard residue; d: D form. Phe(3-CN) = N#Cc1cccc(C[CH](N)C(=O)O)c1; Phe(2-CN) = N#Cc1ccccc1C[CH](N)C(=O)O; 1Nal = N[CH](Cc1cccc2ccccc12)C(=O)O
# Assays:
# [1] = target: hPin1 (Homo sapiens, UniProt Q13526); assay: protease-coupled PPIase assay, hPin1; format: biochemical; settings: 6 nM hPin1; substrate Ac-Ala-Ala-Ser(PO3H2)-Pro-Arg-pNA, trypsin; 35 mM HEPES pH 7.8, 6° C; read-out: Target T-1 (hPin1), IC50 class
# Chain of hPin1 (Q13526 whole entry): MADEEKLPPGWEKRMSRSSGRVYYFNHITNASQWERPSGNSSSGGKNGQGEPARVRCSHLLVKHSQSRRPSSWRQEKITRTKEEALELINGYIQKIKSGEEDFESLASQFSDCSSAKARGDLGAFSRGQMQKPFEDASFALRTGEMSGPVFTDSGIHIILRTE
# [2] = target: hCyp18 (Homo sapiens, UniProt P62937); assay: protease-coupled PPIase assay, hCyp18; format: biochemical; settings: 10 nM hCyp18; substrate Suc-Ala-Phe-Pro-Phe-pNA, α-chymotrypsin; 35 mM HEPES pH 7.8, 6° C; read-out: Target T-3 (hCyp18), IC50 class
# Chain of hCyp18 (P62937 whole entry): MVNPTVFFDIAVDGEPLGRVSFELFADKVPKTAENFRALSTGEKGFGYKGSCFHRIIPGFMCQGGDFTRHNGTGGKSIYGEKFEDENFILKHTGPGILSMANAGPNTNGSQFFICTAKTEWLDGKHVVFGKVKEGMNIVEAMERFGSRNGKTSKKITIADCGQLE
# [3] = target: hFKBP12 (Homo sapiens, UniProt P62942); assay: protease-coupled PPIase assay, hFKBP12; format: biochemical; settings: 20 nM hFKBP12; substrate Suc-Ala-Phe-Pro-Phe-pNA, α-chymotrypsin; 35 mM HEPES pH 7.8, 6° C; read-out: Target T-2 (hFKBP12), IC50 class
# Chain of hFKBP12 (P62942 whole entry): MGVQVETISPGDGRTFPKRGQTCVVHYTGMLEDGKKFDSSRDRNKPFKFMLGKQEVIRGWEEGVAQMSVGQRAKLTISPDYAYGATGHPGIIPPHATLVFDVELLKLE
# [4] = target: LpCyp18 (Legionella pneumophila, UniProt Q5ZRZ4); assay: biochemical
# Chain of LpCyp18 (Q5ZRZ4 1-164): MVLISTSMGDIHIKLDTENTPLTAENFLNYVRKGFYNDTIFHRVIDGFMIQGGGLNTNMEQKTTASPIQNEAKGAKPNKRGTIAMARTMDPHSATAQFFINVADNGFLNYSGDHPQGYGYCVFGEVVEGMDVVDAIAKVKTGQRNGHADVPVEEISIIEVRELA
# [5] = target: EcParvulin (Escherichia coli, UniProt P0A9L5); assay: protease-coupled PPIase assay, EcParvulin; format: biochemical; settings: 20 nM EcParvulin; substrate Suc-Ala-Phe-Pro-Phe-pNA, α-chymotrypsin; 35 mM HEPES pH 7.8, 6° C; read-out: Target T-5 (EcParv), IC50 class
# Chain of EcParvulin (P0A9L5 whole entry): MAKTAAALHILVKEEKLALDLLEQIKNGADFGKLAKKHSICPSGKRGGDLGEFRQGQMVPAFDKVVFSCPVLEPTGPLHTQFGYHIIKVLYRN
compound,measurement,setting,value
CC(=O)NC(Cc1cccc2ccccc12)C(=O)NC(Cc1ccccc1C#N)C(N)=O (stereo not drawn) [Compound 8] (Ac-[1Nal]-[Phe(2-CN)]-NH2; configuration not given here),IC50,[1],< 5 µM
same,IC50,[2],> 100 µM
same,IC50,[3],> 100 µM
same,IC50,[4],> 100 µM
CC(=O)NC(Cc1cccc2ccccc12)C(=O)NC(Cc1cccc(C#N)c1)C(N)=O (stereo not drawn) [Compound 9] (Ac-[1Nal]-[Phe(3-CN)]-NH2; configuration not given here),IC50,[5],5 to 10 µM
same,IC50,[1],5 to 10 µM
same,IC50,[2],> 100 µM
same,IC50,[3],> 100 µM
same,IC50,[4],> 100 µM
CC(C)CC(NC(=O)C1CCCN1CC#N)C(N)=O (stereo not drawn) [Compound 6],IC50,[1],5 to 10 µM
same,IC50,[2],> 100 µM
same,IC50,[3],> 100 µM
same,IC50,[4],> 100 µM
CCc1ccc(NC(=S)NCCC#N)cc1 [Compound 5],IC50,[1],< 5 µM
same,IC50,[2],> 100 µM
same,IC50,[3],> 100 µM
same,IC50,[4],> 100 µM
CCNC(=S)NC(Cc1ccc2ccccc2c1)C(=O)NCCC#N (stereo not drawn) [Compound 1],IC50,[1],< 5 µM
same,IC50,[2],> 100 µM
same,IC50,[3],> 100 µM
same,IC50,[4],> 100 µM
N#CCCNS(=O)(=O)Cc1ccccc1 [Compound 3],IC50,[1],5 to 10 µM
same,IC50,[2],> 100 µM
same,IC50,[3],> 100 µM
same,IC50,[4],> 100 µM
CN(C)c1ccc(N=Nc2ccc(S(=O)(=O)NCCC#N)cc2)cc1 [Compound 7],IC50,[1],5 to 10 µM
same,IC50,[2],> 100 µM
same,IC50,[3],> 100 µM
same,IC50,[4],> 100 µM
N#CCCNC(=O)[C@H](Cc1csc2ccccc12)NC(=S)Nc1ccc(SC(F)(F)F)cc1 [Compound 2],IC50,[1],5 to 10 µM
same,IC50,[2],> 100 µM
same,IC50,[3],> 100 µM
same,IC50,[4],> 100 µM
